PMC4684755 (ACS chemical biology, 2015)

Columns and labels:
[1] = molecular target: ORAS (Neurospora crassa, UniProt Q7S6N4); assay: type III PKS assay, LC-HRMS; format: biochemical; settings: pH 8.0, room temperature, overnight
[2] = molecular target: T1, CsyA (Aspergillus oryzae, UniProt Q53U85); assay: type III PKS assay, LC-HRMS; format: biochemical; settings: malonyl-CoA 2 mM, pH 8.0, room temperature, overnight
T1 sequence (Q53U85 1-402): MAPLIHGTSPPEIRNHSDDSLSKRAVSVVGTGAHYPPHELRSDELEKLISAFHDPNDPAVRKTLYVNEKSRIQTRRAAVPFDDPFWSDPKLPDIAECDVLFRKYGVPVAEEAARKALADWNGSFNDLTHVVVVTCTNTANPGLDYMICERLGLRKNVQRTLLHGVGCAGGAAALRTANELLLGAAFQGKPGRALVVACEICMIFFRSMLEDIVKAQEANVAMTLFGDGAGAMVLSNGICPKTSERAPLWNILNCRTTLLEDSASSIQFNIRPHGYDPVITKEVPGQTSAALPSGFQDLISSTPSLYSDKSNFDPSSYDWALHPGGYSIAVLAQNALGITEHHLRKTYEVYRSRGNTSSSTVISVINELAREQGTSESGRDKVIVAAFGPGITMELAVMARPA

[3] = molecular target: PKS18 (Mycobacterium tuberculosis, UniProt P9WPF1)
Chain of PKS18 (P9WPF1 whole entry): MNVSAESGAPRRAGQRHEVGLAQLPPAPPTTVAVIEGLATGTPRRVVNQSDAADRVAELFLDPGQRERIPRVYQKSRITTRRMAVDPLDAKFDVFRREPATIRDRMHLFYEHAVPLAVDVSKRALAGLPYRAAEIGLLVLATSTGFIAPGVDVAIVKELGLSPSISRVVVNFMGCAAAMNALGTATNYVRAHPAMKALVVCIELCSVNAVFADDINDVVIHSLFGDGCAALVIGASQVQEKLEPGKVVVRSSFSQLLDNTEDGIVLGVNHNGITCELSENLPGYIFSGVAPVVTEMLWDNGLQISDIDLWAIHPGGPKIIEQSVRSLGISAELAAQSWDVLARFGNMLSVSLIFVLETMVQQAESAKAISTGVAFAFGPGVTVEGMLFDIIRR

Structure (SMILES)	type III PKS assay, LC-HRMS ([1]; malonyl-CoA 2 mM)	type III PKS assay, LC-HRMS [2]	type III PKS assay, LC-HRMS [3]	type III PKS assay, LC-HRMS ([1]; lauryl-CoA 1 mM)
CCCCCCCCCCCC(=O)SCCNC(=O)CCNC(=O)[C@H](O)C(C)(C)COP(=O)(O)OP(=O)(O)OC[C@H]1O[C@@H](n2cnc3c(N)ncnc32)[C@H](O)[C@@H]1OP(=O)(O)O [lauryl-CoA]	enzymatic reactions containing lauryl-CoA, malonyl-CoA and the type III PKSs as positive controls	enzymatic reactions containing lauryl-CoA, malonyl-CoA and the type III PKSs as positive controls	enzymatic reactions containing lauryl-CoA, malonyl-CoA and the type III PKSs as positive controls	–
CC(C)(COP(=O)(O)OP(=O)(O)OC[C@H]1O[C@@H](n2cnc3c(N)ncnc32)[C@H](O)[C@@H]1OP(=O)(O)O)[C@@H](O)C(=O)NCCC(=O)NCCSC(=O)CC(=O)O [malonyl-CoA]	–	–	enzymatic reactions containing lauryl-CoA, malonyl-CoA and the type III PKSs as positive controls	enzymatic reactions containing lauryl-CoA, malonyl-CoA and the type III PKSs as positive controls
